Here are results for twelve compounds from ChEMBL document CHEMBL1201862, “PubChem BioAssay data set” (2004).

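The compound was tested at five concentrations on cells cultured in 96-well plates, with a 48-hour exposure period. GI50 marks 50% less growth.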 Active and inactive are the calls of the source. Rule as the data show it: active = GI50 up to about 1.1 µM and inactive = higher.

What all share (assay): NCI-60 cell line screen, 48 h
The subject of test [1] is CCRF-CEM.
Test [2] deals with SF-295.
The test system of test [3] is M14.
Test [4] deals with SW-620.
The test system of test [5] is SN12C.
In test [6] the test system is SK-MEL-2.
Test [7] concerns MOLT-4.
Test [8] has as its system UO-31.
Test [9] has as its system HCT-15.
The subject of test [10] is UACC-257.
Test [11] relates to UACC-62.
Test [12] concerns A549.
The test system of test [13] is SNB-75.
Test [14] has as its system OVCAR-8.
For test [15], the system named is NCI-H460.
In test [16] the test system is TK-10.
Test [17] has as its system U-251.
Test [18] concerns CAKI-1.

Consider `COc1ccc(C=O)c(N(C)C(=O)C(C)(C)C)c1`, for which the GI50 in [1], in [2], in test [3], in test [4], in [5] and in [6] was > 100 µM (inactive) in each case. Besides, the GI50 is > 100 µM (inactive) in test [7]; > 100 µM (inactive) in test [8]; greater than 100 µM in [9]; > 100 µM (inactive) in test [10]; > 100 µM (inactive) in [11]; > 100 µM (inactive) in test [12]. For the same compound, the GI50 in test [13], in test [14], in [15], in test [16] and in [17] was > 100 µM (inactive) each time.

`NNC(=O)/C(=C/c1ccc(Cl)c(Cl)c1)NC(=O)c1ccccc1`: the GI50 in [1] is 92.5 µM (inactive); in test [2], > 100 µM (inactive); in [3] it was > 100 µM (inactive); in test [4], > 100 µM (inactive); in test [5], > 100 µM (inactive); in test [6] it was > 100 µM (inactive). Besides, the GI50 in test [7] was 80.5 µM (inactive); in [8], > 100 µM (inactive); in test [10] it was > 100 µM (inactive); in test [11], > 100 µM (inactive); in test [12], > 100 µM (inactive); in [13] it was > 100 µM (inactive). Besides, the GI50 in [14], in test [15], in test [16] and in [17] was > 100 µM (inactive) in each case.

With `C[N+](C)(C)CC1CCCC/C1=N\OC(=O)c1ccccc1` (configuration not stated), the GI50 in test [1], in [2], in [3], in test [4], in test [5] and in test [7] was > 100 µM (inactive) in each case. Moreover, the GI50 in test [8] is > 100 µM (inactive); in test [18] it was > 100 µM (inactive); in test [9], greater than 100 µM; in test [10] it was > 100 µM (inactive); in test [11], > 100 µM (inactive); in test [12] it was > 100 µM (inactive). Besides, the GI50 in [13] is > 100 µM (inactive); in test [14], > 100 µM (inactive); in [15], > 100 µM (inactive); in test [16], 36.1 µM (inactive); in test [17] it was > 100 µM (inactive).

As to `COC(=O)/C1=C/C2CC(/C=C(/c3ccccc3)C(=O)O1)C2`, the GI50 in test [1] is 19.5 µM (inactive); in [2], 32.9 µM (inactive); in [3], 29.2 µM (inactive); in test [4], 33.7 µM (inactive); in test [5], 24.4 µM (inactive); in test [7] it was 17.5 µM (inactive). The GI50 was 32.9 µM (inactive) in [8]; 18.8 µM in test [9]; 8.53 µM (inactive) in test [10]; 14.7 µM (inactive) in [11]; 29.9 µM (inactive) in test [12]; 5.93 µM (inactive) in test [13]. The GI50 in test [14] was 23.1 µM (inactive); in test [15], 32.6 µM (inactive); in [16], 32.7 µM (inactive); in test [17], 19.7 µM (inactive).

Consider `O=C(CSc1nc(-c2ccccc2)c(-c2ccccc2)[nH]1)N/N=C/c1ccc(O)cc1`, for which the GI50 was 23.3 µM (inactive) in [1]; 22.4 µM (inactive) in test [2]; 19 µM (inactive) in [3]; 30.8 µM (inactive) in [4]; 26.4 µM (inactive) in test [5]; 24.5 µM (inactive) in test [6]. For the same compound, the GI50 in [7] is 15.7 µM (inactive); in [8], 28.1 µM (inactive); in test [10], 4.86 µM (inactive); in test [11] it was 22.1 µM (inactive); in [12], 24.2 µM (inactive); in test [13], 19.7 µM (inactive). Besides, the GI50 in [14] was 17.2 µM (inactive); in test [15], 20 µM (inactive); in [16] it was 27.6 µM (inactive); in test [17] it was 20.3 µM (inactive).

In the case of `C=C(c1ccccc1N)[C@@]1(O)C[C@H](/C(=C\C)CO)C[C@@H]1NCc1ccccc1`, the GI50 in test [1] is 21.2 µM (inactive); in test [2] it was 16.9 µM (inactive); in [3], 15.2 µM (inactive); in [4] it was 21.7 µM (inactive); in test [5] it was 32 µM (inactive); in test [6] it was 22.2 µM (inactive). Further, the GI50 in test [7] is 18.2 µM (inactive); in test [8] it was 17.4 µM (inactive); in [9], 29 µM; in [10], 17.9 µM (inactive); in [11], 28.6 µM (inactive); in test [12], 37 µM (inactive). The GI50 in [13] was 10.8 µM (inactive); in test [14], 24.5 µM (inactive); in [15] it was 20.7 µM (inactive); in test [16], 20.8 µM (inactive); in test [17], 17.2 µM (inactive).

As to `Cc1cc(NS(=O)(=O)c2ccc(NC(=O)c3cccc4c(N)c5ccccc5nc34)cc2)no1`, the GI50 in [1] is 21.4 µM (inactive); in [2], 23.6 µM (inactive); in test [3], 27.5 µM (inactive); in test [4] it was 30 µM (inactive); in test [5], 19.2 µM (inactive); in test [6], 18.7 µM (inactive). In addition, the GI50 was 28.9 µM (inactive) in [7]; 33.3 µM (inactive) in [8]; 34.8 µM (inactive) in test [18]; 33 µM in [9]; 28 µM (inactive) in [11]; > 100 µM (inactive) in test [12]. For the same compound, the GI50 was 68.7 µM (inactive) in test [13]; 21.8 µM (inactive) in test [14]; 32.9 µM (inactive) in [15]; 43.1 µM (inactive) in [16]; 26.6 µM (inactive) in test [17].

On to `CC(/C=C1\CCC(CN(C)C)C1=O)c1cccc(Br)c1` (configuration not stated), for which the GI50 was 2.52 µM (inactive) in [1]; 22.2 µM (inactive) in test [2]; 14.9 µM (inactive) in test [3]; 8.18 µM (inactive) in [4]; 22 µM (inactive) in [5]; 16.7 µM (inactive) in test [6]. Besides, the GI50 was 3.85 µM (inactive) in [7]; 19.1 µM (inactive) in test [8]; 8.15 µM (inactive) in [18]; 14.9 µM in [9]; 17.3 µM (inactive) in test [10]; 17.3 µM (inactive) in test [11]. For the same compound, the GI50 is 31.3 µM (inactive) in test [12]; 18.2 µM (inactive) in test [14]; 29.6 µM (inactive) in test [15]; 15.7 µM (inactive) in test [16]; 18.2 µM (inactive) in test [17].

Consider `S=P(c1ccccc1)(c1ccccc1)C1(C2(P(=S)(c3ccccc3)c3ccccc3)CC2)CC1`, for which the GI50 in test [1], in test [2], in test [3], in test [4], in test [5] and in [6] was > 100 µM (inactive) each time. The GI50 was > 100 µM (inactive) in test [7]; > 100 µM (inactive) in test [8]; greater than 100 µM in [9]; > 100 µM (inactive) in test [11]; > 100 µM (inactive) in [12]; > 100 µM (inactive) in test [13]. The GI50 in test [14], in test [15], in test [16] and in [17] was > 100 µM (inactive) each time.

Take `Cc1cccc(C(C)(C)C)c1NC(=O)C(=O)Cc1nc2ccccc2s1`: the GI50 in [2], in test [3], in test [4], in [5], in test [6] and in test [7] was > 100 µM (inactive) each time. Besides, the GI50 in test [8] is > 100 µM (inactive); in [18], > 100 µM (inactive); in [9] it was greater than 100 µM; in test [10] it was > 100 µM (inactive); in [11], > 100 µM (inactive); in test [12], > 100 µM (inactive). The GI50 in [13], in test [14], in test [15], in test [16] and in test [17] was > 100 µM (inactive) in each case.

In the case of `Sc1nnc(/C=C/c2ccc(Cl)c(Cl)c2)[nH]1`, the GI50 in test [1] was > 100 µM (inactive); in test [2] it was > 100 µM (inactive); in [4], > 100 µM (inactive); in [5], > 100 µM (inactive); in test [6], > 100 µM (inactive); in test [7], 59.4 µM (inactive). In addition, the GI50 was 71.3 µM (inactive) in [8]; 87.5 µM in [9]; > 100 µM (inactive) in test [10]; > 100 µM (inactive) in test [11]; > 100 µM (inactive) in test [12]; > 100 µM (inactive) in test [14]. Moreover, the GI50 is > 100 µM (inactive) in [15], > 100 µM (inactive) in test [16] and 58.5 µM (inactive) in [17].

On to `NS(=O)(=O)c1cc2c(cc1Cl)NC(/C(=N/NC(=O)c1ccncc1)C1C(=O)NC(=O)NC1=O)=NS2(=O)=O`, for which the GI50 in test [1], in [2], in [3], in [4], in [6] and in test [7] was > 100 µM (inactive) each time. Further, the GI50 in test [8] is 95.3 µM (inactive); in test [18] it was > 100 µM (inactive); in test [9], greater than 100 µM; in test [10] it was > 100 µM (inactive); in test [11], > 100 µM (inactive); in test [12] it was > 100 µM (inactive). The GI50 in test [14], in test [15], in [16] and in test [17] was > 100 µM (inactive) throughout.
